Reference: patent US9422297B2, “Tricyclic compounds having cytostatic and/or cytotoxic activity and methods of use thereof” (Duquesne University of the Holy Ghost, priority 2007, dated 2016)

Key:
SK-MEL-23 = test: NCI In-Vitro Testing, Melanoma; type: cell-based
OVCAR-4 = test: NCI In-Vitro Testing, Ovarian Cancer; type: cell-based
EKVX = test: NCI In-Vitro Testing, Non-Small Cell Lung Cancer; type: cell-based
NCI-H226 = test: NCI In-Vitro Testing, Non-Small Cell Lung Cancer; type: cell-based
SK-OV-3 = test: NCI In-Vitro Testing, Ovarian Cancer; type: cell-based
RPMI-8226 = test: NCI In-Vitro Testing, Leukemia; type: cell-based
A498 = test: NCI In-Vitro Testing, Renal Cancer; type: cell-based
KM12 = test: NCI In-Vitro Testing, Colon Cancer; type: cell-based
NCI-H522 = test: NCI In-Vitro Testing, Non-Small Cell Lung Cancer; type: cell-based
RXF 399 = test: NCI In-Vitro Testing, Renal Cancer; type: cell-based
OVCAR-3 = test: NCI In-Vitro Testing, Ovarian Cancer; type: cell-based
SNB-75 = test: NCI In-Vitro Testing, CNS Cancer; type: cell-based
U251 = test: NCI In-Vitro Testing, CNS Cancer; type: cell-based
ACHN = test: NCI In-Vitro Testing, Renal Cancer; type: cell-based
60 tumor cell line panel = test: NCI 60 preclinical in vitro tumor screening panel; details: read-out: GI50 across tumor panel
SF-258 = test: NCI In-Vitro Testing, CNS Cancer; type: cell-based
SW-620 = test: NCI In-Vitro Testing, Colon Cancer; type: cell-based
NCI-H460 = test: NCI In-Vitro Testing, Non-Small Cell Lung Cancer; type: cell-based
HCT-15 = test: NCI In-Vitro Testing, Colon Cancer; type: cell-based

What does the source list for `Nc1nc2c(c(Nc3ccc(Cl)cc3)n1)-c1ccccc1C2` [AAG145-136]?
GI50 (SK-MEL-23): 1.51E−8 Molar; LC50 (SK-MEL-23): >1.00E−4 Molar; TGI (SK-MEL-23): >1.00E−4 Molar; Percent Growth (SK-MEL-23; Log10 Concentration −4.0 Molar): 41%; Percent Growth (SK-MEL-23; Log10 Concentration −5.0 Molar): 32%; Percent Growth (SK-MEL-23; Log10 Concentration −6.0 Molar): 54%; Percent Growth (SK-MEL-23; Log10 Concentration −7.0 Molar): 97%; Percent Growth (SK-MEL-23; Log10 Concentration −8.0 Molar): 105%; GI50 (OVCAR-4): 4.16E−6 Molar; LC50 (OVCAR-4): >1.00E−4 Molar; TGI (OVCAR-4): >1.00E−4 Molar; Percent Growth (OVCAR-4; Log10 Concentration −4.0 Molar): 19%; Percent Growth (OVCAR-4; Log10 Concentration −5.0 Molar): 30%; Percent Growth (OVCAR-4; Log10 Concentration −6.0 Molar): 82%; Percent Growth (OVCAR-4; Log10 Concentration −7.0 Molar): 84%; Percent Growth (OVCAR-4; Log10 Concentration −8.0 Molar): 83%; GI50 (EKVX): 2.71E−8 Molar; LC50 (EKVX): >1.00E−4 Molar; TGI (EKVX): >1.00E−4 Molar; Percent Growth (EKVX; Log10 Concentration −4.0 Molar): 4%; Percent Growth (EKVX; Log10 Concentration −5.0 Molar): 26%; Percent Growth (EKVX; Log10 Concentration −6.0 Molar): 68%; Percent Growth (EKVX; Log10 Concentration −7.0 Molar): 68%; Percent Growth (EKVX; Log10 Concentration −8.0 Molar): 101%; GI50 (NCI-H226): 2.14E−6 Molar; LC50 (NCI-H226): >1.00E−4 Molar; TGI (NCI-H226): >1.00E−4 Molar; Percent Growth (NCI-H226; Log10 Concentration −4.0 Molar): 14%; Percent Growth (NCI-H226; Log10 Concentration −5.0 Molar): 36%; Percent Growth (NCI-H226; Log10 Concentration −6.0 Molar): 57%; Percent Growth (NCI-H226; Log10 Concentration −7.0 Molar): 97%; Percent Growth (NCI-H226; Log10 Concentration −8.0 Molar): 98%; GI50 (SK-OV-3): 2.09E−6 Molar; LC50 (SK-OV-3): >1.00E−4 Molar; TGI (SK-OV-3): >1.00E−4 Molar; Percent Growth (SK-OV-3; Log10 Concentration −4.0 Molar): 16%; Percent Growth (SK-OV-3; Log10 Concentration −5.0 Molar): 36%; Percent Growth (SK-OV-3; Log10 Concentration −6.0 Molar): 57%; Percent Growth (SK-OV-3; Log10 Concentration −7.0 Molar): 97%; Percent Growth (SK-OV-3; Log10 Concentration −8.0 Molar): 106%; GI50 (RPMI-8226): 4.89E−7 Molar; LC50 (RPMI-8226): >1.00E−4 Molar; TGI (RPMI-8226): >1.00E−4 Molar; Percent Growth (RPMI-8226; Log10 Concentration −4.0 Molar): 7%; Percent Growth (RPMI-8226; Log10 Concentration −5.0 Molar): 11%; Percent Growth (RPMI-8226; Log10 Concentration −6.0 Molar): 32%; Percent Growth (RPMI-8226; Log10 Concentration −7.0 Molar): 89%; Percent Growth (RPMI-8226; Log10 Concentration −8.0 Molar): 96%; GI50 (A498): 2.49E−6 Molar; LC50 (A498): >1.00E−4 Molar; TGI (A498): 2.85E−5 Molar; Percent Growth (A498; Log10 Concentration −4.0 Molar): −17%; Percent Growth (A498; Log10 Concentration −5.0 Molar): 14%; Percent Growth (A498; Log10 Concentration −6.0 Molar): 74%; Percent Growth (A498; Log10 Concentration −7.0 Molar): 91%; Percent Growth (A498; Log10 Concentration −8.0 Molar): 101%; GI50 (KM12): 3.30E−7 Molar; LC50 (KM12): >1.00E−4 Molar; TGI (KM12): >1.00E−4 Molar; Percent Growth (KM12; Log10 Concentration −4.0 Molar): 5%; Percent Growth (KM12; Log10 Concentration −5.0 Molar): 7%; Percent Growth (KM12; Log10 Concentration −6.0 Molar): 25%; Percent Growth (KM12; Log10 Concentration −7.0 Molar): 77%; Percent Growth (KM12; Log10 Concentration −8.0 Molar): 98%; GI50 (NCI-H522): 6.22E−7 Molar; LC50 (NCI-H522): >1.00E−4 Molar; TGI (NCI-H522): 3.88E−5 Molar; Percent Growth (NCI-H522; Log10 Concentration −4.0 Molar): −10%; Percent Growth (NCI-H522; Log10 Concentration −5.0 Molar): 14%; Percent Growth (NCI-H522; Log10 Concentration −6.0 Molar): 40%; Percent Growth (NCI-H522; Log10 Concentration −7.0 Molar): 89%; Percent Growth (NCI-H522; Log10 Concentration −8.0 Molar): 96%; GI50 (RXF 399): 1.20E−5 Molar; LC50 (RXF 399): >1.00E−4 Molar; TGI (RXF 399): 6.26E−5 Molar; Percent Growth (RXF 399; Log10 Concentration −4.0 Molar): −14%; Percent Growth (RXF 399; Log10 Concentration −5.0 Molar): 56%; Percent Growth (RXF 399; Log10 Concentration −6.0 Molar): 91%; Percent Growth (RXF 399; Log10 Concentration −7.0 Molar): 107%; Percent Growth (RXF 399; Log10 Concentration −8.0 Molar): 108%; GI50 (OVCAR-3): 2.48E−6 Molar; LC50 (OVCAR-3): >1.00E−4 Molar; TGI (OVCAR-3): >1.00E−4 Molar; Percent Growth (OVCAR-3; Log10 Concentration −4.0 Molar): 14%; Percent Growth (OVCAR-3; Log10 Concentration −5.0 Molar): 22%; Percent Growth (OVCAR-3; Log10 Concentration −6.0 Molar): 66%; Percent Growth (OVCAR-3; Log10 Concentration −7.0 Molar): 86%; Percent Growth (OVCAR-3; Log10 Concentration −8.0 Molar): 91%; GI50 (SNB-75): 5.03E−6 Molar; LC50 (SNB-75): >1.00E−4 Molar; TGI (SNB-75): 6.44E−5 Molar; Percent Growth (SNB-75; Log10 Concentration −4.0 Molar): −10%; Percent Growth (SNB-75; Log10 Concentration −5.0 Molar): 41%; Percent Growth (SNB-75; Log10 Concentration −6.0 Molar): 71%; Percent Growth (SNB-75; Log10 Concentration −7.0 Molar): 92%; Percent Growth (SNB-75; Log10 Concentration −8.0 Molar): 95%; GI50 (U251): 1.84E−7 Molar; LC50 (U251): >1.00E−4 Molar; TGI (U251): 5.66E−5 Molar; Percent Growth (U251; Log10 Concentration −4.0 Molar): −6%; Percent Growth (U251; Log10 Concentration −5.0 Molar): 19%; Percent Growth (U251; Log10 Concentration −6.0 Molar): 29%; Percent Growth (U251; Log10 Concentration −7.0 Molar): 53%; Percent Growth (U251; Log10 Concentration −8.0 Molar): 98%; GI50 (ACHN): 3.42E−7 Molar; LC50 (ACHN): >1.00E−4 Molar; TGI (ACHN): 1.41E−5 Molar; Percent Growth (ACHN; Log10 Concentration −4.0 Molar): −22%; Percent Growth (ACHN; Log10 Concentration −5.0 Molar): 4%; Percent Growth (ACHN; Log10 Concentration −6.0 Molar): 21%; Percent Growth (ACHN; Log10 Concentration −7.0 Molar): 83%; Percent Growth (ACHN; Log10 Concentration −8.0 Molar): 89%; GI50 (60 tumor cell line panel): 31.2 to 1000 nM; GI50 (SF-258): 8.62E−8 Molar; LC50 (SF-258): >1.00E−4 Molar; TGI (SF-258): >1.00E−4 Molar; Percent Growth (SF-258; Log10 Concentration −4.0 Molar): 21%; Percent Growth (SF-258; Log10 Concentration −5.0 Molar): 19%; Percent Growth (SF-258; Log10 Concentration −6.0 Molar): 27%; Percent Growth (SF-258; Log10 Concentration −7.0 Molar): 45%; Percent Growth (SF-258; Log10 Concentration −8.0 Molar): 104%; GI50 (SW-620): 6.30E−8 Molar; LC50 (SW-620): >1.00E−4 Molar; TGI (SW-620): >1.00E−4 Molar; Percent Growth (SW-620; Log10 Concentration −4.0 Molar): 10%; Percent Growth (SW-620; Log10 Concentration −5.0 Molar): 10%; Percent Growth (SW-620; Log10 Concentration −6.0 Molar): 15%; Percent Growth (SW-620; Log10 Concentration −7.0 Molar): 39%; Percent Growth (SW-620; Log10 Concentration −8.0 Molar): 92%; GI50 (NCI-H460): 1.93E−8 Molar; LC50 (NCI-H460): >1.00E−4 Molar; TGI (NCI-H460): >1.00E−4 Molar; Percent Growth (NCI-H460; Log10 Concentration −4.0 Molar): 3%; Percent Growth (NCI-H460; Log10 Concentration −5.0 Molar): 3%; Percent Growth (NCI-H460; Log10 Concentration −6.0 Molar): 15%; Percent Growth (NCI-H460; Log10 Concentration −7.0 Molar): 23%; Percent Growth (NCI-H460; Log10 Concentration −8.0 Molar): 61%; GI50 (HCT-15): 4.34E−7 Molar; LC50 (HCT-15): >1.00E−4 Molar; TGI (HCT-15): 1.22E−5 Molar; Percent Growth (HCT-15; Log10 Concentration −4.0 Molar): −39%; Percent Growth (HCT-15; Log10 Concentration −5.0 Molar): 4%; Percent Growth (HCT-15; Log10 Concentration −6.0 Molar): 29%; Percent Growth (HCT-15; Log10 Concentration −7.0 Molar): 68%; Percent Growth (HCT-15; Log10 Concentration −8.0 Molar): 94%
